Test results: patent US4460781A, “4-(2-Benzoylphenyl-1-pyazole and 4-(2-benzoylphenyl)-1-pyrazoline derivatives” (Hoffmann-La Roche Inc., priority 1983, dated 1984)

Experiments:
Cats = experiment: Unanesthetized Cat (minimum symptoms, usually ataxia); type: in vivo; conditions: Felis catus, po, cats treated orally
Description: Cats are treated orally and observed for minimum symptoms--usually ataxia. One cat is used at a dose of 50 mg/kg. If activity is present, up to three cats/dose are used. Results are given as minimum effective dose.

Toxicity (LD50) (PO) = conditions: in vivo
male mice = experiment: Inclined Screen (paralyzing effects, sliding off the screen); type: in vivo; conditions: Mus musculus, groups of 6, at least 4 hours, maximum dose of 500 mg/kg, read-out: Inclined Screen (PD50)
Description: Groups of 6 male mice are given the test drug (maximum dose of 500 mg/kg) and then are left on the inclined screen at least 4 hours for observation of paralyzing effects severe enough to cause them to slide off the screen. If activity is observed, additional doses are taken until at least two are reached at which some, but not all of the animals slide off the screen. Doses at which mice fall off the screen due to toxicity or excitation are not included in the calculation of PD50.

mice = experiment: Footshock (blocking of shock-elicited fighting in pairs of mice); type: in vivo; conditions: Mus musculus, pretreated 1 hour, 3 out of 3 pairs blocked from fighting, maximum of 100 mg/kg, read-out: Footshock (100% blocking dose)
Description: A pair of mice is confined under a one liter beaker placed on a grid which presents shock to the feet. At least 5 fighting episodes are elicited in a two-minute period. Pairs of mice are marked and pretreated 1 hour to a second shocking. Logarithmic dose intervals are utilized up to a maximum of 100 mg/kg. At the 100% blocking dose, 3 out of 3 pairs must be blocked from fighting.

**Q.** What does the source list for `Cc1[nH]nc2c1-c1ccc([N+](=O)[O-])cc1C(c1ccccc1Cl)=NC2` [6-(2-Chlorophenyl)-3-methyl-8-nitro-2H,4H-pyrazolo[3,4-d][2]benzazepine]?
**A.** minimal effective dose (Cats): 250 mg/kg; LD50 (Toxicity (LD50) (PO)): > 1000 mg/kg; ED50 (male mice): 400 mg/kg

**Q.** What does the source list for `Clc1ccc2c(c1)C(c1ccccc1Cl)=NCc1n[nH]cc1-2` [8-Chloro-6-(2-chlorophenyl)-2H,4H-pyrazolo[3,4-d][2]benzazepine]?
**A.** minimal effective dose (Cats): 10 mg/kg; ED100 (mice): 25 mg/kg; LD50 (Toxicity (LD50) (PO)): 800 mg/kg; ED50 (male mice): 143 mg/kg

**Q.** Which results are given for `OCCn1cc2c(n1)CN=C(c1ccccc1)c1cc(Cl)ccc1-2` [8-Chloro-2-(2-hydroxyethyl)-6-phenyl-2H,4H-pyrazolo[3,4-d][2]benzazepine]?
**A.** minimal effective dose (Cats): 20 mg/kg; ED100 (mice): 100 mg/kg; LD50 (Toxicity (LD50) (PO)): 750 mg/kg; ED50 (male mice): 40 mg/kg

**Q.** Which results are given for `CNC(=O)n1cc2c(n1)CN=C(c1ccccc1)c1cc(Cl)ccc1-2` [8-Chloro-N-methyl-6-phenyl-2H,4H-pyrazolo[3,4-d][2]benzazepine-2-carboxamide]?
**A.** minimal effective dose (Cats): 20 mg/kg; ED100 (mice): 25 mg/kg; ED50 (male mice): 400 mg/kg

**Q.** For `Fc1ccccc1C1=NCc2n[nH]cc2-c2ccc(Cl)cc21` [8-Chloro-6-(2-fluorophenyl)-2H,4H-pyrazolo[3,4-d][2]benzazepine], which minimal effective dose (Cats) is on record?
**A.** 2 mg/kg

**Q.** And the ED100 (mice)?
**A.** 25 mg/kg

**Q.** What about the LD50 (Toxicity (LD50) (PO)) of the same compound?
**A.** 760 mg/kg

**Q.** And the ED50 (male mice)?
**A.** 66 mg/kg
